Data as given in patent US8802082B2, “Rhodamine derivatives for photodynamic diagnosis and treatment” (Université de Montreal, priority 1999, dated 2014).

Tests used:
[1] = test system: CEM T cell acute lymphoblastic leukemia cell line; experiment: Phototoxicity of TH9402, limiting dilution assay of clonogenic cells, CEM admixed with irradiated PBMC; format: cell-based; details: 10 μM TH9402 40 min, 90 min dye-free, 5 joules/cm^2, LDA 12-14 days
Experimental: T cells represent the most important population of immune cells present in the peripheral blood. […] Phototoxicity was also evaluated in parallel against the chronic myelogenous leukemia cell line K562, that had been used in U.S. Pat. Nos. 5,556,992 and 5,773,460. The CEM T cell acute lymphoblastic leukemia cell line and K562 chronic myelogeneous leukemia cell line (Lozzio, B. B. and Lozzio, C. B. (1979) Cancer Res., 3(6): 363-370) were obtained from the American Type Culture Collection (ATCC, 12301 Parklawn Drive, Rockville, Md. 20852 USA) under the accession number CCL-119 and CCL-243. Cultures were maintained at 37° C. in a humidified incubator with an atmosphere of 95% air and 5% CO2. […] Before each experiment, cell viability was assessed by trypan blue exclusion. […]
To assess the photochemotherapeutic potential and the in vitro phototoxicity of 4,5-dibromorhodamine 123 hydrobromide (TH9402), the T cell line CEM and the leukemic line K562 admixed with normal irradiated PBMC were incubated with TH9402 and exposed to 5 joules/cm^2 of light (as described above). […] Growth at each serial dilution was assessed in an “all-or-nothing” (positive or negative) fashion under an inverted phase microscope. […]

resting lymphocytes = experiment: Cellular content/efflux of TH9402 by flow cytometry, resting lymphocytes; format: cell-based, human
Experimental: (§1) TH9402 cellular content in resting and activated lymphocytes was evaluated by flow-cytometry, since the intensity of TH9402 (green) fluorescence correlates with the cellular content in TH9402. Briefly, 10^6 cells/ml, previously activated or not with PHA, were incubated in X-vivo-5 medium supplemented with 2.5% human AB serum and 10 μM TH9402 for 40 minutes. These cells were washed two times with X-vivo medium supplemented with 10% AB serum and cells analysed by flow cytometry 30, 50, 70, 90 and 110 min after the end of the TH9402 incorporation period. […] Since cellular concentration of TH9402 correlates with the extent of cell elimination, the high concentration of TH9402 maintained in activated lymphocytes explains their sensitivity to photodynamic therapy. In contrast, the rapid efflux of TH9402 from resting lymphocytes should explain preservation of their proliferative activity.
In order to identify the mechanism responsible for the differential retention of TH9402 between activated and resting lymphocytes, cyclosporin-A was used to block the multidrug transporter (P-gp 170). These cells were incubated with 10 μM TH9402 for 8 minutes, and washed with medium containing 1 μg/ml cyclosporin-A or medium alone. TH9402 retention was subsequently evaluated by flow-cytometry (green fluorescence) (FIG. 5). […] The functional impairment of such a pump in activated lymphocytes could explain the high levels of phototoxicity observed in these cells.

activated lymphocytes = experiment: Cellular content/efflux of TH9402 by flow cytometry, activated lymphocytes; format: cell-based, human; details: 10 μM TH9402, wash with 1 μg/ml cyclosporin-A, 110 minutes
Experimental: as §1
In order to identify the mechanism responsible for the differential retention of TH9402 between activated and resting lymphocytes, cyclosporin-A was used to block the multidrug transporter (P-gp 170). These cells were incubated with 10 μM TH9402 for 8 minutes, and washed with medium containing 1 μg/ml cyclosporin-A or medium alone. TH9402 retention was subsequently evaluated by flow-cytometry (green fluorescence) (FIG. 5). […]

Br.COC(=O)c1ccccc1-c1c2ccc(=N)c(Br)c-2oc2c(Br)c(N)ccc12 [TH9402, 4,5-dibromorhodamine 123 (2-(4,5-dibromo-6-amino-3-imino-3H-xanthen-9-yl)-benzoic acid methyl ester) hydrobromide]
CEM cells escaping elimination by phototherapy in comparison to the media only sample [1]: less than 0.1%
cells demonstrating low TH9402 fluorescence (resting lymphocytes; 10 μM TH9402 40 min, 110 minutes after the end of the incorporation period): approximately 50%
TH9402 retention with cyclosporin A versus medium alone, resting lymphocytes (resting lymphocytes; 10 μM TH9402, wash with 1 μg/ml cyclosporin-A, 110 minutes): higher retention
intensity of TH9402 fluorescence, resting versus activated lymphocytes (resting lymphocytes; all time-points evaluated (30-110 min)): less for resting lymphocytes than for activated lymphocytes
fluorescence intensity in activated cells treated or not treated with cyclosporin A (activated lymphocytes): identical
